Measured values: publication PMC7615677 (Science translational medicine, 2023)

Experiments:
L. tropica = test: Leishmania intramacrophage in vitro assay; type: cell-based; details: L. tropica MHOM/AF/2015/HTD7
Procedure: (§1) A drug incubation period of 96 h was applied, and cells were stained with Giemsa for microscopic evaluation of cellular amastigote burdens. Percentage reduction compared to the burden in the infected non-treated control wells was used as a measure for drug activity.

L. major = test: Leishmania intramacrophage in vitro assay; type: cell-based
Procedure: as §1

L. infantum [1] = test: Leishmania intramacrophage in vitro assay; type: cell-based
Procedure: as §1

L. guyanensis = test: Leishmania intramacrophage in vitro assay; type: cell-based; details: L. guyanensis MHOM/PE/02/PER 054/0
Procedure: as §1

L. panamensis = test: Leishmania intramacrophage in vitro assay; type: cell-based; details: L. panamensis MHOM/PA/71/LS94
Procedure: as §1

THP-1 = test: MitoXpress oxygen consumption assay; type: cell-based
[2] = pKa and Log D7.4 determination; type: physicochemical
Procedure: The ionization constant (pKa), octanol-pH 7.4 buffer partition coefficient (Log D7.4), solubility in biorelevant buffers (FaSSIF-V2, FeSSIF-V2, FaSSGF and pH 7.4 phosphate buffered saline (PBS)) and Caco-2 permeability were determined according to previously published methods ([10]).

[3] = tested on: T. brucei brucei (bloodstream form); test: In vitro activity against other kinetoplastid parasites; type: cell-based; details: Trypanosoma brucei, one range given for T. brucei brucei and T. b. rhodesiense
L. infantum [4] = test: PK/PD analysis of liver burden versus cumulative unbound AUC; type: in vivo, hamsters; details: Hamster – L. infantum; estimated using the fitted parameters
Description: To determine the correlation between the pharmacokinetic (PK) and pharmacodynamic (PD) data, repeat dose profiles in mice and hamsters following single and twice daily dosing were simulated using the fitted parameters.
Other parameters were less well correlated to efficacy, presumably given that none reflect the cumulative exposure profile with an extended treatment regimen. […] Results for mice infected with L. donovani were similar to those for L. infantum (Table S15).

[5] = Compartmental PK modelling and repeat-dose simulation; set-up: species or system mice; details: for K01 / K10 / V/F: Mice, fitted
Procedure: To support pharmacokinetic/pharmacodynamic (PKPD) analysis, data in mice and hamsters were also analyzed by compartmental modeling using Phoenix WinNonlin (version 8.2; Certara, Princeton, NJ). For each dose level, an extravascular dosing, single compartment disposition model was fit to the combined Day 1/Day 5 repeat dose plasma data. The model was parameterized with a single volume term (V/F), and with first order absorption (K01) and elimination (K10) rate constants. Initial values for the parameter estimates were obtained by fitting of the model to the Day 1 data at the lowest dose level only, and the same initial values were used across the dose range. Experimental data used in model fitting were the mean concentration-time profiles and the average dose administered to each group. The weighting scheme (1/Y2 for mouse and 1/Y for hamster) was selected based on goodness of fit of the peak region of the experimental profiles. Parameter estimates obtained through fitting were used to simulate full repeat-dose plasma concentration-time profiles with both once-daily and twice-daily (dosing at […]) administration at each dose level and treatment duration used in the efficacy studies.

[6] = L. infantum MHOM/BR/2007/WC (L3015)
[7] = L. infantum MHOM/ES/2016/LLM-2346
[8] = L. infantum MHOM/FR/96/LEM3323 Cl4 MIL-R (miltefosine resistant)
[9] = L. infantum MHOM/FR/96/LEM3323 Cl4 PM-R (paromomycin resistant)
[10] = L. infantum MHOM/MA/67/ITMAP263
[11] = mice, 3.125 mg/kg bid, 10 days, simulated
[12] = mice, 12.5 mg/kg bid, 5 days, simulated

Cc1[nH]c2nc(N)nc(C)c2c1-c1ccc(C#N)c2c1OCO2 [DNDI-6174]
EC50 (L. tropica): 360 nM
EC90 (L. tropica): 2180 nM
EC50 (L. major; L. major MHOM/IL/81/Friedlin): 90 nM
EC90 (L. major; L. major MHOM/IL/81/Friedlin): 900 nM
EC50 (L. major; L. major MHOM/SA/85/JISH118): 740 nM
EC90 (L. major; L. major MHOM/SA/85/JISH118): 11400 nM
EC50 (L. infantum [1]; [6]): 70 nM
EC90 (L. infantum [1]; [6]): 180 nM
EC50 (L. infantum [1]; [7]): 210 nM
EC90 (L. infantum [1]; [7]): 1520 nM
EC50 (L. infantum [1]; L. infantum MHOM/FR/96/LEM3323): 50 nM
EC90 (L. infantum [1]; L. infantum MHOM/FR/96/LEM3323): 180 nM
EC50 (L. infantum [1]; [8]): 70 nM
EC90 (L. infantum [1]; [8]): 220 nM
EC50 (L. infantum [1]; [9]): 80 nM
EC90 (L. infantum [1]; [9]): 170 nM
EC50 (L. infantum [1]; [10]): 160 nM
EC90 (L. infantum [1]; [10]): 440 nM
EC50 (L. guyanensis): 12 nM
EC90 (L. guyanensis): 39 nM
EC50 (L. panamensis): 40 nM
EC90 (L. panamensis): 85 nM
XC50 (THP-1): > 50000 nM
pXC50 (THP-1): < 4.3
pKa (measured) [2]: 5.58
Log D7.4 (measured) ([2]; octanol-pH 7.4 buffer): 2.57
logD ([2]; octanol/pH 7.4 buffer, pH 7.4, octanol-pH 7.4 buffer, read-out: Log D7.4 (measured)): 2.6
pKa ([2]; read-out: pKa (measured)): 5.6
EC50 [3]: 5000 to 20000 nM
unbound ED95 (L. infantum [4]): 3.6
K01 ([5]; 3.6 mg/kg): 1.04 h⁻¹
K10 ([5]; 3.6 mg/kg): 0.270 h⁻¹
V/F ([5]; 3.6 mg/kg): 2.76 L/kg
K01 ([5]; 7.1 mg/kg): 0.833 h⁻¹
K10 ([5]; 7.1 mg/kg): 0.246 h⁻¹
V/F ([5]; 7.1 mg/kg): 1.95 L/kg
K01 ([5]; 12.7 mg/kg): 0.634 h⁻¹
K10 ([5]; 12.7 mg/kg): 0.213 h⁻¹
V/F ([5]; 12.7 mg/kg): 1.43 L/kg
K01 ([5]; 25 mg/kg): 3.00 h⁻¹
K10 ([5]; 25 mg/kg): 0.158 h⁻¹
V/F ([5]; 25 mg/kg): 2.40 L/kg
AUC24 ss (unbound) [5, 11]: 1010 ng·h/mL
Cav ss [5, 11]: 351 ng/mL
Cav ss (unbound) [5, 11]: 42 ng/mL
Cmax (unbound) [5, 11]: 98 ng/mL
Cmin [5, 11]: 23 ng/mL
Cmin (unbound) [5, 11]: 3 ng/mL
Cum AUC (unbound) [5, 11]: 10100 ng·h/mL
AUC24 ss [5, 12]: 82000 ng·h/mL
AUC24 ss (unbound) [5, 12]: 9840 ng·h/mL
Cav ss [5, 12]: 3420 ng/mL
Cav ss (unbound) [5, 12]: 410 ng/mL
Cmax (unbound) [5, 12]: 780 ng/mL
